Among the data in the Kinase Knowledgebase extract (Sharma et al. 2016) are inhibition and IC50 values, retold here.

The structures appear in SMILES notation. Some results are limits rather than exact numbers.

The first test has as its system MAPK14 (Balb/c mice). Put plainly: Animal Model. The settings on record: dose or concentration not given here.
As a reminder, the inhibition is the relative decrease from the control value, in per cent. A higher inhibition goes with a strong effect. Compound `Cc1nc(COc2ccc(C(=O)Nc3cc(NC(=O)c4cc(F)cc(N5CCOCC5)c4)ccc3C)cc2)cs1` returned an inhibition of 0%.

A further test deals with MAPK14 (human) (UniProt Q16539). Put plainly: Inhibition of LPS Induced TNF-alpha Release in Human PBMC.
MAPK14 (human), sequence (Q16539 whole entry, looked up): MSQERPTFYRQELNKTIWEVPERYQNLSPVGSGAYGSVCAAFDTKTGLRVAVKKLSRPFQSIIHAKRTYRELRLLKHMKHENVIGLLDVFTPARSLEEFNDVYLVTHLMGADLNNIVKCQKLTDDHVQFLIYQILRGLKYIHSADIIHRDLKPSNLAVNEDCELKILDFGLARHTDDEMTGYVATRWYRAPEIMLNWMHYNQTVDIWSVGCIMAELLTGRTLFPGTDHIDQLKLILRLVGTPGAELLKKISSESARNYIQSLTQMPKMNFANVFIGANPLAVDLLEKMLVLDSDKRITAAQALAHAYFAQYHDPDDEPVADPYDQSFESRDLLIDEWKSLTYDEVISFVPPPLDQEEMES
Conditions: not given
Usually IC50 stands for the concentration that gives 50% inhibition. Turning to `Cc1ccc(NC(=O)c2cccc(N(C)C)c2)cc1NC(=O)c1ccc(O)cc1`, the IC50 was more than 50000 nM.
Same read-out and setting: the result for `COc1ccc(C(=O)Nc2cc(NC(=O)c3cccc(N(C)C)c3)ccc2C)cc1` reads more than 50000 nM.
The same measure, in the same setting: the result for `COc1ccc(C(=O)Nc2cc(NC(=O)c3cccc(N(C)C)c3)ccc2C)c(OC)c1` reads more than 50000 nM.

The next test deals with MAPK14 (UniProt Q16539). The experiment in a line: Inhibition of MAPK14 Kinase Activity.
MAPK14, sequence (Q16539 whole entry, looked up): as above
Conditions: not given
For the compound `Cc1ccc(NC(=O)c2cccc(N3CCOCC3)c2)cc1NC(=O)c1ccc(OCc2ccncc2)cc1`, the concentration for half-maximal inhibition (IC50) is 22 nM.
The same measure, in the same setting: the result for `Cc1nc(COc2ccc(C(=O)Nc3cc(NC(=O)c4cccc(N5CCOCC5)c4)ccc3C)cc2)cs1` reads 28 nM; that for `Cc1ccc(NC(=O)c2cccc(N3CCOCC3)c2)cc1NC(=O)c1ccc(OCc2cccnc2)cc1`, 95 nM; that for `Cc1ccc(NC(=O)c2cccc(N3CCOCC3)c2)cc1NC(=O)c1ccc(OCc2ccccc2)cc1`, 37 nM.
Compound `Cc1ccc(NC(=O)c2cc(F)cc(N3CCOCC3)c2)cc1NC(=O)c1ccc(OCc2ccncc2)cc1` returned an IC50 of 17 nM.
As for `Cc1ccc(NC(=O)c2cc(F)cc(N3CCOCC3)c2)cc1NC(=O)c1ccc(OCc2ccccn2)cc1`, the half-inhibitory concentration (IC50) is 64 nM.
Compound `Cc1ccc(NC(=O)c2cc(F)cc(N3CCOCC3)c2)cc1NC(=O)c1ccc(OCc2cscn2)cc1` showed an IC50 of 16 nM.
`Cc1nc(COc2ccc(C(=O)Nc3cc(NC(=O)c4cc(F)cc(N5CCOCC5)c4)ccc3C)cc2)cs1` had a half-inhibitory concentration (IC50) of 97 nM.
